Earlier results on two compounds are cited in US20090053769A1, “HETEROLOGOUS PRODUCTION OF NATURAL PRODUCTS IN BACTERIA” (University of Southern California, priority 2007, published 2009).

For this series the following is noted: general statement on antibacterial, anticancer and antiviral activities, reference 24.

Positions of bridges follow the written chain, without caps; N, C: chain ends. Non-standard residues stand in square brackets, D forms with d. Residues, ends and D or L forms follow the SMILES beside them. Chains are numbered I, II in the order given. *: point of attachment. Quinoxaline2carbonyl = O=C(c1cnc2ccccc2n1)*; NMeV = CN[CH](C(=O)O)C(C)C; NMeC = CN[CH](CS)C(=O)O

For the compound `CS[C@H]1SC[C@H]2C(=O)N(C)[C@@H](C(C)C)C(=O)OC[C@@H](NC(=O)c3cnc4ccccc4n3)C(=O)N[C@@H](C)C(=O)N(C)[C@@H]1C(=O)N(C)[C@@H](C(C)C)C(=O)OC[C@@H](NC(=O)c1cnc3ccccc3n1)C(=O)N[C@@H](C)C(=O)N2C` [compound 1, echinomycin], the potency entry is “nanomolar potency”.

On to `CC1NC(=O)C(NC(=O)c2cnc3ccccc3n2)COC(=O)C(C(C)C)N(C)C(=O)C2CSSCC(C(=O)N(C)C(C(C)C)C(=O)OCC(NC(=O)c3cnc4ccccc4n3)C(=O)NC(C)C(=O)N2C)N(C)C1=O` (centres unmarked) [compound 2, triostin A] (I: Quinoxaline2carbonyl-SA[NMeC][NMeV] / II: Quinoxaline2carbonyl-SA[NMeC][NMeV]; ester I:1-II:C, I:C-II:1; disulfide I:3-II:3; configuration not given here), for which the potency entry is given as “nanomolar potency”.
